≈ marks a conversion by molar mass, not a printed value.
Tests used:
[1] = test system: Intracranial D54MG Human Gliomas; assay: Survival, intracranial glioma, intratumoral Ad and systemic 5-FC; assay type: in vivo, SCID mice; conditions: Table 7; Saline (no virus) + 5-FC
Method: U87MG and D54MG cells (5×10^5) were stereotactically injected into the right frontal cortex of SCID mice. Tumors were established for 5 days before intratumoral injection of AdCMVCD (10^8 or 10^9 pfu/mouse). Mice were then treated IP with 5-FC (500 mg/kg bid) on days 2-9 post infection and monitored for survival. Kaplan-Meier survival curves and median and 20% survival values were calculated by standard methods.

[2] = test system: intracranial D54MG tumors; assay: Intracranial survival study; assay type: in vivo, athymic nude mice; conditions: for median survival time: FIG. 5
Method: D54MG human glioma cells (0.5×10^6 cells/mouse) were injected into the right frontal cortex of athymic nude mice (10 mice/group). Six days after tumor implantation (Day 0), a single dose of saline or 3.2×10^7 TCID50 AdCD-D314A was injected i.t. Mice then received 5 Gy fractions of radiation treatment on Days 1, 3, and 7 and 5-FC (500 mg/kg i.p. twice daily on Days 0-4, and 7-11) or saline and were subsequently monitored for survival.
D54MG human glioma cells (0.5×10^6 cells/mouse) were injected into the right frontal cortex of athymic nude mice (10 mice/group). Five days after tumor implantation, a single dose of PBS or 3.2×10^7 TCID50 AdbCD-D314A was injected i.t. on Day 5 Mice then received radiation treatment on Days 6, 9 and 13 at 2 or 5 Gy and 5-FC (500 mg/kg i.p. q2d×5/week for 3 weeks) and were subsequently monitored for survival.
D54MG tumors were established intracranially in athymic nude mice as described. Briefly, mice were anesthetized by i.p. administration of ketamine (20 mg/ml) and xylazine (0.3 mg/ml) in saline at 0.07 ml/10 g of body weight. A midline scalp incision was made, and a 0.5-mm burr hole was drilled 1.5-2.0 mm to the right of midline and 1 mm anterior to the coronal suture. D54MG cells were injected stereotactically at 0.5×10^6 cells (1×10^8/ml), using a 250 μl Hamilton syringe with a prepared 30 gauge needle mounted in a Stoelting stereotaxic apparatus. A plastic sleeve surrounding the needle allowed reproducible injections of tumor cells, saline or Ad to a depth of 2.5 mm. The needles were left in place for 2 min to minimize reflux of the tumor cells along the needle track. The scalp wounds were closed with Tissu-Mend glue to avoid scatter dose from metallic wound clips during radiation treatment. The mice were placed on a heating pad in sterile microisolator polycarbonate cages and allowed to awaken from anesthesia. Tumors were allowed to grow for 6 days before the start of treatment (Day 0). Animals were randomly divided into groups receiving different treatments: 3.2×10^7 TCID50 AdbCD-D314A in 10 μl saline; AdbCD-D314A in combination with radiation; AdbCD-D314A plus 5-FC; AdbCD-D314A plus 5-FC in combination with radiation, intratumoral saline followed by intraperitoneal 5-FU and intratumoral saline plus 5-FC and radiation. On the day after AdbCD-D314A injection, mice were treated i.p. with either saline or 5-FC twice daily at 500 mg/kg on Days 0 to 4, and 7 to 11 and monitored daily for survival. Radiation therapy consisted of 15 Gy ^60Co delivered in 5 Gy fractions to the whole brain, on Days 1, 3 and 7. Irradiated mice were immobilized in individual Lucite chambers with their heads positioned in an 8×32 cm collimated field. Animals were shielded with 3 cm of lead placed over the chamber, extending from behind the ears to the tail.

[3] = test system: human cell lines derived from gliomas, prostate, colon, and pancreatic carcinomas; assay: 5-FU toxicity, panel of cell lines; assay type: cell-based; conditions: range over 12 cell lines
Method: Tumor cells (5×10^4) were plated in 96 well plates and allowed to adhere overnight. Cells were then incubated continuously in the presence of increasing concentrations of 5-FU (0-200 μg/ml) and assayed for toxicity using an MTS assay (Promega, Madison Wis.) after 5-days. ICx values were calculated as previously described. U251MG glioma cells were as sensitive to 5-FU as LS174T and WiDR colon carcinoma cells, while D54MG, U87MG and U118MG glioma cells and AsPC-1 pancreatic carcinoma cells were 3-fold less sensitive (Table 2).

[4] = test system: BXPC-3; assay: Crystal violet cytotoxicity assay (5-FU, or 5-FC after Ad infection); assay type: cell-based; conditions: Homo sapiens, 120 h, 5 days
Source text: (§1) Twenty-four hours later cells were infected with AdbCD-D314A or AdbCDwt at various MOI.

[5] = test system: D54MG; assay: as above; assay type: cell-based; conditions: Homo sapiens, 120 h, 5 days
Source text: as §1

[6] = test system: MIA PaCa-2; assay: as above; assay type: cell-based; conditions: Homo sapiens, 120 h, 5 days
Source text: as §1

[7] = test system: PANC-1; assay: as above; assay type: cell-based; conditions: Homo sapiens, 120 h, 5 days
Source text: as §1

[8] = test system: Panc2.03; assay: as above; assay type: cell-based; conditions: Homo sapiens, Panc203, 120 h, 5 days
Source text: as §1

[9] = test system: S2-013; assay: as above; assay type: cell-based; conditions: Homo sapiens, 120 h, 5 days
Source text: as §1

[10] = test system: S2-VP10; assay: as above; assay type: cell-based; conditions: Homo sapiens, 120 h, 5 days
Source text: as §1

[11] = test system: U251MG; assay: as above; assay type: cell-based; conditions: Homo sapiens, U-251, 120 h, 5 days
Source text: as §1

[12] = test system: U87MG; assay: as above; assay type: cell-based; conditions: Homo sapiens, U-87 MG, 120 h, 5 days
Source text: as §1

Nc1nc(=O)[nH]cc1F [5-FC, 5-fluorocytosine]
Survival 20% [1]: 30 | Survival Median [1]: 29 | median survival time ([2]; 5-FC): 17 days | median survival time ([2]; 5-FC plus radiation): 30 days | survival SF50 ([2]; FIG. 19, mock-infected, 5-FC): 23 days | survival ([2]; preliminary study, mock-infected, 5-FC): 13 days

O=c1[nH]cc(F)c(=O)[nH]1 [5-FU, 5-fluorouracil]
IC50 [3]: 0.04 to 4.97 µg/mL (≈ 0.308 to 38.2 µM) | IC50 [4]: 0.1 µg/mL (≈ 0.769 µM) | IC50 [5]: 3.9 ± 0.8 µg/mL (≈ 30 µM) | IC50 [6]: 1.4 µg/mL (≈ 10.8 µM) | IC50 [7]: 1.5 ± 0.5 µg/mL (≈ 11.5 µM) | IC50 [8]: 12.4 µg/mL (≈ 95.3 µM) | IC50 [9]: 0.5 ± 0.1 µg/mL (≈ 3.84 µM) | IC50 [10]: 2.7 ± 0.1 µg/mL (≈ 20.8 µM) | IC50 [11]: 2.5 ± 1.2 µg/mL (≈ 19.2 µM) | IC50 [12]: 0.9 ± 0.5 µg/mL (≈ 6.92 µM)

— US20070225245A1, “Viral vector driven mutant bacterial cytosine deaminase gene and uses thereof” (priority 1998, published 2007)
